Test results as given in patent publication US20230346741A1, “ERIODICTYOL COMPOSITIONS AND METHODS” (CAS PROPERTIES, LLC, priority 2022, published 2023).

Legend:
Chikungunya virus = experiment: Plaque reduction in human microglia cells infected with Chikungunya virus; conditions: 100 micromolar concentration; FIG. 1
[1] = Treatment of a subject with long-COVID syndrome (case report); type: in vivo, human; conditions: 60 mg per day (2 x 30 mg capsules) for three months; one subject
Description: A subject having a diagnosis of long-COVID syndrome was administered 60 milligrams (mg) eriodictyol (30 mg/vegetarian capsule; 2 capsules daily) per day for three months. The subject reported an over 80% reduction in long-covid symptoms that included a 80% reduction in fatigue, brain fog, difficulty concentrating, difficulty remembering, difficulty finding the right words, and difficulty multi-tasking.

[2] = test system: IL-1β secretion, human SV40 microglia cells; experiment: IL-1β secretion by LPS-stimulated human SV40 microglia after pretreatment; type: cell-based; conditions: 50 micromolar concentration; pretreated two hours, then LPS stimulation; FIG. 2
Text: Cultured human SV40 microglia cells were pretreated with eriodictyol (Erio) or nobiletin (Nobi) for two hours to determine the degree to which eriodictyol and nobiletin inhibits the secretion of the proinflammatory cytokine interleukin-1β(IL-1β) followed by stimulation by bacteria lipopolysaccharide (LPS).

Row | SMILES | potency of plaque inhibition compared with nobiletin (Chikungunya virus) | reduction in fatigue, brain fog, difficulty concentrating, remembering, finding the right words and multi-tasking (subject-reported) [1] | reduction in long-covid symptoms (subject-reported) [1] | inhibition of IL-1β secretion compared with luteolin and methoxyluteolin [2]
1 | O=C1C[C@@H](c2ccc(O)c(O)c2)Oc2cc(O)cc(O)c21 [eriodictyol, (2S)-2-(3,4-Dihydroxyphenyl)-5,7-dihydroxy-2,3-dihydro-4H-1-benzopyran-4-one] | slightly more potent inhibitor than nobiletin | 80% | over 80% | more potent inhibitors of IL-1β secretion as compared to luteolin (Lut) and methoxyluteolin (Methlut)
2 | COc1ccc(-c2cc(=O)c3c(OC)c(OC)c(OC)c(OC)c3o2)cc1OC [nobiletin, reference compound] | – | – | – | more potent inhibitors of IL-1β secretion as compared to luteolin (Lut) and methoxyluteolin (Methlut)
